# Results from patent publication US20200181132A1, “QUINOXALINE AND PYRIDOPYRAZINE DERIVATIVES AS PI3K-BETA INHIBITORS” (JANSSEN PHARMACEUTICA NV, priority 2017, published 2020).
# Read-outs that look alike come from different tables or passages of the source.
# Legend:
# MTOR_h = biological target: T1, MTOR_h (Homo sapiens, UniProt P42345); assay: Enzyme binding assay (KINOMEscan), MTOR; details: DiscoveRx
# T1 construct: purchased DiscoveRx Corporation
# Procedure: (§1) Enzyme Binding Assays (KINOMEscan®)
# (§2) Kinase enzyme binding affinities of compounds disclosed herein were determined using the KINOMEscan technology performed by DiscoveRx Corporation, San Diego, Calif., USA (www.kinomescan.com). Table A reports the obtained Kd values (nM), with the Kd being the inhibitor binding constant: […]
# PIK3Cγ_h = biological target: T2, PIK3Cγ_h (Homo sapiens, UniProt P48736); assay: Enzyme binding assay (KINOMEscan), PIK3Cγ; details: DiscoveRx
# T2 construct: purchased DiscoveRx Corporation
# T2 sequence (P48736 whole entry): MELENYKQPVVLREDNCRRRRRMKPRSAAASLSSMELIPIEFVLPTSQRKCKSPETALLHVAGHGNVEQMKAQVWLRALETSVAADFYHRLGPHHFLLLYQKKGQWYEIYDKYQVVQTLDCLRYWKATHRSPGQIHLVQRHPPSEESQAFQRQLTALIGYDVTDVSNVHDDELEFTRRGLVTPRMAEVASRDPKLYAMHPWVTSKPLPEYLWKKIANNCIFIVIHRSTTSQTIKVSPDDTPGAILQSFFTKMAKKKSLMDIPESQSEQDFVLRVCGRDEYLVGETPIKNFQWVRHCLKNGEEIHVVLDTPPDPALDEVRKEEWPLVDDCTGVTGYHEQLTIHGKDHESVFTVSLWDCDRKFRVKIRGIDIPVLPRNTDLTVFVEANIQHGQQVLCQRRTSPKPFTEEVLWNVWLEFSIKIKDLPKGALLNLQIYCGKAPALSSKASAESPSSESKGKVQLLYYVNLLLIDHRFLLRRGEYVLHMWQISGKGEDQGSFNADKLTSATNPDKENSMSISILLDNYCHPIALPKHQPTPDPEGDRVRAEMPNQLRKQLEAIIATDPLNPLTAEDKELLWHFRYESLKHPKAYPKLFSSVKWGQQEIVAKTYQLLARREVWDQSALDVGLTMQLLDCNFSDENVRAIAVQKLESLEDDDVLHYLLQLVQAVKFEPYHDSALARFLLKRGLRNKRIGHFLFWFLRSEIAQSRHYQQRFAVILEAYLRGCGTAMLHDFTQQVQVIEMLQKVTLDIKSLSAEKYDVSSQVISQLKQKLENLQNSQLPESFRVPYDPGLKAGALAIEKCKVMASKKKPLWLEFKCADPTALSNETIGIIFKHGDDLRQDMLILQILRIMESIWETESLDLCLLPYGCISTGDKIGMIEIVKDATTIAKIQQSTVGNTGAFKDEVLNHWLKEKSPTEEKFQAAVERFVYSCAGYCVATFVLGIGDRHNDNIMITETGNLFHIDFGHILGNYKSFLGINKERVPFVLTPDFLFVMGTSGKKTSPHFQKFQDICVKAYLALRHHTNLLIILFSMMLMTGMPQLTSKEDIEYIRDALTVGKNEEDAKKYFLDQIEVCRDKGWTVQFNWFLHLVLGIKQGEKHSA
# Procedure: as §1, §2
# [1] = tested on: phosphorylation of Akt at Thr308 in PC-3 cells; assay: Cellular assay: phospho-Akt (Thr308) MSD ELISA in PC-3 cells; type: cell-based; details: 60 min incubation with compound, read-out: IC50 pAkt_Thr308
# Procedure: (§3) Cellular activity of PI3Kβ inhibitors was determined by quantifying the phosphorylation of Akt in PC-3 cells. Akt phosphorylated at Ser473 and Thr308 were measured using an enzyme-linked immunosorbent assay (ELISA; Meso Scale Discovery (MSD), Gaithersburg, Md.) and specific primary antibodies from MSD.
# (§4) On day 1, PC3 cells (ATCC # […]) were seeded into PerkinElmer MW96 plates at 25.000 cells per well, in 75 μl complete culture medium (DMEM high glucose, AQmedia™, D0819, Sigma-Aldrich) containing 10% heat inactivated FCS and incubated at 37° C., 5% CO2 during 24 hours. On day 2, compound or DMSO (0.3%) was added and cells were further incubated for 60 min at 37° C., 5% CO2 in a total volume of 100 μl of medium.
# (§5) The phosphoprotein assay was executed according to vendor instructions in the Phospho-Akt (Ser473) Assay Whole Cell Lysate Kit (MSD # K15100D-3) and the Phospho-Akt (Thr308) Assay Whole Cell Lysate Kit (MSD # K151DYD-3) using the lysis, blocking and wash buffer provided.
# (§6) Briefly, at the end of the cell treatment period, media were removed by aspiration and adherent cells were lysed in 50 μl ice-cold lysis buffer. MSD plates are supplied pre-coated with capture antibodies for Phospho-Akt (Ser473 and Thr308). After blocking, lysates from tissue culture plates were added and plates were washed. Then, a solution containing the detection antibody (anti-total Akt conjugated with an electrochemiluminescent compound-MSD Sulfo-tag label) was added. The signals were detected using an MSD SECTOR Imager 6000 and are proportional to the phospho-Akt titres.
# (§7) Data were processed. The percentage of inhibition was plotted against the log concentration of test compounds, and the sigmoidal log concentration-effect curve of best fit was calculated by nonlinear regression analysis. From these concentration-response curves, the IC50 values were calculated. Five concentrations were used for curve fitting.
# PIK3Cα_h = biological target: T3, PIK3Cα_h (Homo sapiens, UniProt P42336); assay: Enzyme binding assay (KINOMEscan), PIK3Cα; details: DiscoveRx
# T3 construct: purchased DiscoveRx Corporation
# T3 sequence (P42336 whole entry): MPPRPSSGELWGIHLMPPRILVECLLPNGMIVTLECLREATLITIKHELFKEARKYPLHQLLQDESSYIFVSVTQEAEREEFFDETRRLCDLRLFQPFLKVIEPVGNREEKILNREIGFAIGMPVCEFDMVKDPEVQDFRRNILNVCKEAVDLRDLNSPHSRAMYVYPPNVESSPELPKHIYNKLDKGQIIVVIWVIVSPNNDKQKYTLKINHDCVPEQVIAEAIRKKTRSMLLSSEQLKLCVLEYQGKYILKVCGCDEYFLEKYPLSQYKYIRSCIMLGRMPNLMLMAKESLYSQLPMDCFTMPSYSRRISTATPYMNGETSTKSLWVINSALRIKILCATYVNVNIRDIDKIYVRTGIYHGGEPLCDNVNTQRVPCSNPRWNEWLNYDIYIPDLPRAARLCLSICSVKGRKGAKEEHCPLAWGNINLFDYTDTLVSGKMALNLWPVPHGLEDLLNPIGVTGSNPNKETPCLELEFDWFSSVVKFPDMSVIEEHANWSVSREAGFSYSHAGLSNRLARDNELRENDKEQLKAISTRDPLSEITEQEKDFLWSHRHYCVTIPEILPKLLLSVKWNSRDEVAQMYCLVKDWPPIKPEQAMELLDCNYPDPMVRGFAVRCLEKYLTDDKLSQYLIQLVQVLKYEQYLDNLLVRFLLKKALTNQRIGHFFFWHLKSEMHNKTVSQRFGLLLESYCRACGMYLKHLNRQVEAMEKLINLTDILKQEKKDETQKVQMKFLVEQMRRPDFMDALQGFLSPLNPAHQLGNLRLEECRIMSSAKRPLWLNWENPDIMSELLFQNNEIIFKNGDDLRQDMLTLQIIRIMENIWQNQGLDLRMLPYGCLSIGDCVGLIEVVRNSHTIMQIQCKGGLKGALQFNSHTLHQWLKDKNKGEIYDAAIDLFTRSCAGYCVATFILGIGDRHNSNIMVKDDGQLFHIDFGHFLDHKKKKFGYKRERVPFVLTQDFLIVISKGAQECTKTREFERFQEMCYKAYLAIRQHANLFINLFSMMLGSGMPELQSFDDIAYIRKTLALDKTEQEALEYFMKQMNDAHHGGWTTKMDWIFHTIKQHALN
# Procedure: as §1, §2
# [2] = tested on: phosphorylation of Akt at Ser473 in PC-3 cells; assay: Cellular assay: phospho-Akt (Ser473) MSD ELISA in PC-3 cells; type: cell-based; details: 60 min incubation with compound, read-out: IC50 pAkt_S473
# Procedure: as §3, §4, §5, §6, §7
# PIK3Cβ_h = biological target: T4, PIK3Cβ_h (Homo sapiens, UniProt P42338); assay: Enzyme binding assay (KINOMEscan), PIK3Cβ; details: DiscoveRx
# T4 construct: purchased DiscoveRx Corporation
# T4 sequence (P42338 whole entry): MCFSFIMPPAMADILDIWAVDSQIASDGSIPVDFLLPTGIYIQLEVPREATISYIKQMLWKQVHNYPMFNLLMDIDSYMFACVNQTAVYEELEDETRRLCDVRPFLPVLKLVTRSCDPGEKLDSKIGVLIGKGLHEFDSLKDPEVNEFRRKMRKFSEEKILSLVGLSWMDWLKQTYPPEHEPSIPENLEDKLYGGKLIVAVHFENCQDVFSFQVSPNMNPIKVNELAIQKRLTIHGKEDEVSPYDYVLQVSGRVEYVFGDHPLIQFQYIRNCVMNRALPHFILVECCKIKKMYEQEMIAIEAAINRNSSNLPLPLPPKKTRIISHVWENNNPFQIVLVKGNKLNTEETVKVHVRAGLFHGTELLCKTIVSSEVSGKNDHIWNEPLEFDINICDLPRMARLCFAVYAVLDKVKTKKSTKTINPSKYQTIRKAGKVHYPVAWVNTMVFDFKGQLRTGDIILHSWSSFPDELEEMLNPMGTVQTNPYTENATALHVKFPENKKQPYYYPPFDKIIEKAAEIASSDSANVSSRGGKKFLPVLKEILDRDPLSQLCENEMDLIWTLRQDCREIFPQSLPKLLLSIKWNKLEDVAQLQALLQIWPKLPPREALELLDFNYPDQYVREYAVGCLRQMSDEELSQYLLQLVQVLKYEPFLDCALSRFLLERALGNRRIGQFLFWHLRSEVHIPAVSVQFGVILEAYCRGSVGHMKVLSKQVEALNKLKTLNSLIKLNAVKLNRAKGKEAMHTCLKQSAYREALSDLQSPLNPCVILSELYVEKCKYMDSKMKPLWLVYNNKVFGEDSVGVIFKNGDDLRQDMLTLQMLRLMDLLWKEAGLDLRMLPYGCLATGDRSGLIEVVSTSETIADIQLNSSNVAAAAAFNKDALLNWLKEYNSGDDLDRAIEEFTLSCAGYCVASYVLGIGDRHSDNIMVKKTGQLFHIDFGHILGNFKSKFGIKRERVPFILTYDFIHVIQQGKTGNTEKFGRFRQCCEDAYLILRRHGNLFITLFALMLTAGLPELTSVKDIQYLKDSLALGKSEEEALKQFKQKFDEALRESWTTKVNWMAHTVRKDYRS
# Procedure: as §1, §2
# PIK3Cδ_h = biological target: T5, PIK3Cδ_h (Homo sapiens, UniProt O00329); assay: Enzyme binding assay (KINOMEscan), PIK3Cδ; details: DiscoveRx
# T5 construct: purchased DiscoveRx Corporation
# T5 sequence (O00329 1-1044): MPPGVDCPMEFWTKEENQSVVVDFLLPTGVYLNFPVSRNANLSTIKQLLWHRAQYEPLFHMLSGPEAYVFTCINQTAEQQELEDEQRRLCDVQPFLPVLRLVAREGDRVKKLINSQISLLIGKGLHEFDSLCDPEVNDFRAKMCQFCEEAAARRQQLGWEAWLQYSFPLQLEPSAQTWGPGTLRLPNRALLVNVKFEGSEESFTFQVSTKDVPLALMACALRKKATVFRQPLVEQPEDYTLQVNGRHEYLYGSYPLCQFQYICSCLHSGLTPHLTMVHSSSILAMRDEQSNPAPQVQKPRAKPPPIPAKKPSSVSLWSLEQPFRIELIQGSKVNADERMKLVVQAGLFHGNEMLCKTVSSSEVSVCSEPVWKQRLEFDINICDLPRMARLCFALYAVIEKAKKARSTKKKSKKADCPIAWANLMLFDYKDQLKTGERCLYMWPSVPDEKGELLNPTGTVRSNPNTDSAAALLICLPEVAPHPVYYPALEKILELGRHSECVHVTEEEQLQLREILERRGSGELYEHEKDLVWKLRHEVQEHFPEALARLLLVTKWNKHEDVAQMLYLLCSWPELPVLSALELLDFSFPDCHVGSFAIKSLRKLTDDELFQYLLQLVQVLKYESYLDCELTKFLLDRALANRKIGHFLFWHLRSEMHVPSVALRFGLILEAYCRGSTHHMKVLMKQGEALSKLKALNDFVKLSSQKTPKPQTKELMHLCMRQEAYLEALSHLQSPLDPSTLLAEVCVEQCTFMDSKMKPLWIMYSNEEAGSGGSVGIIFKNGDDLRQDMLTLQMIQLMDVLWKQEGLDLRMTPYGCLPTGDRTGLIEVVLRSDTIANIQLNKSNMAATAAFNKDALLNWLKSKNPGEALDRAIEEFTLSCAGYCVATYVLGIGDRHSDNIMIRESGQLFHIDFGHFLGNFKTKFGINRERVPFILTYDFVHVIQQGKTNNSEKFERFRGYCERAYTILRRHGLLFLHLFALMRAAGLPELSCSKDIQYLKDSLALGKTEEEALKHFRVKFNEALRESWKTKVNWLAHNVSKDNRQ
# Procedure: as §1, §2
SMILES,Kd (MTOR_h) [nM],Kd (PIK3Cγ_h) [nM],"IC50 ([1]; Homo sapiens, PC-3, 1 h) [nM]",Kd (PIK3Cα_h) [nM],"IC50 ([2]; Homo sapiens, PC-3, 1 h) [nM]",Kd (PIK3Cβ_h) [nM],Kd (PIK3Cδ_h) [nM],melting point [°C],IC50 [1] [nM],IC50 [2] [nM]
COc1ncc(NC(C)c2cc(C(=O)N(C)C)cc3ncc(N4CCOCC4)nc23)cc1C(F)(F)F (stereo not shown) [Compound 24],> 30200,> 30200,> 513,> 30200,> 513,589,8320,80,–,–
CN(C)CCNC(=O)c1cc(C2CCCN2c2cncc(F)n2)c2nc(N3CCOCC3)cnc2c1 (stereo not shown) [Compound 52],–,–,> 513,–,> 513,–,–,–,–,–
CN(C)CCNC(=O)c1cc(C2CCCN2c2cncc(Br)n2)c2nc(N3CCOCC3)cnc2c1 (stereo not shown) [Compound 51],> 30200,> 30200,> 513,9120,> 513,20,3470,–,–,–
O=C(NCCO)c1cc(NCc2cncc(F)c2)c2nc(N3CCOCC3)cnc2c1 [Compound 29],–,–,> 513,–,> 513,–,–,198,–,–
"CN(C)CCNC(=O)c1cc(C2CCCN2c2ccnc(F)c2)c2nc(N3CCOCC3)cnc2c1 (single isomer, unassigned) [Compound 38]",> 30200,20900,–,11500,–,8,1410,177,59,11
"CN(C)CCNC(=O)c1cc(C2CCCN2c2ccnc(F)c2)c2nc(N3CCOCC3)cnc2c1 (single isomer, unassigned) [Compound 39]",19500,> 30200,–,19100,–,1070,31600,–,> 513,> 513
CN(C)CCN(C)C(=O)c1cc(C2CCCN2c2cncc(F)c2)c2nc(N3CCOCC3)cnc2c1 (stereo not shown) [Compound 42],> 30200,2630,1,646,2,0.5,46,–,–,–
Cc1nccc(N2CCCC2c2cc(C(=O)N(C)C)cc3ncc(N4CCOCC4)nc23)n1 (stereo not shown) [Compound 4],> 30200,> 30200,> 513,28800,> 513,1550,22400,110,–,–
COc1ncc(F)cc1NC(C)c1cc(C(=O)N(C)C)cc2ncc(N3CCOCC3)nc12 (stereo not shown) [Compound 26],> 30200,> 30200,191,5010,> 513,15,661,80,–,–
Cc1cc(C)nc(N2CCCC2c2cc(C(=O)N(C)C)cc3ncc(N4CCOCC4)nc23)n1 (stereo not shown) [Compound 5],> 30200,26900,417,5370,> 513,22,832,100,–,–
CN(C)CCNC(=O)c1cc(C2CCCN2c2ccnc(Cl)c2)c2nc(N3CCOCC3)cnc2c1 (stereo not shown) [Compound 46],> 30200,19500,66,13500,102,2,550,–,–,–
COC(=O)c1cc(C(C)Nc2cncc(F)c2)c2nc(N3CCOCC3)cnc2c1 (stereo not shown) [Compound 6],–,–,–,–,–,–,–,240,–,–
CN(C)CCNC(=O)c1cc(C2CCCN2c2cc(Cl)cc(Cl)n2)c2nc(N3CCOCC3)cnc2c1 (stereo not shown) [Compound 45],12300,457,4,479,7,0.3,32,–,–,–
CN(C)C(=O)c1cc(C2CCCN2c2cncc(F)c2)c2nc(N3CCOCC3)cnc2c1 (stereo not shown) [Compound 41],> 30200,1050,3,209,~17,0.8,52,–,–,–
"CN(C)CCNC(=O)c1cc(C2CCCN2c2cncc(F)c2)c2nc(N3CCOCC3)cnc2c1 (single isomer, unassigned) [Compound 40]",> 30200,1050,2,–,2,0.2,120,–,–,–
CN(C)CCNC(=O)c1cc(C2CCCN2c2cncc(Cl)n2)c2nc(N3CCOCC3)cnc2c1 (stereo not shown) [Compound 50],> 30200,3310,12,1660,19,0.9,162,–,–,–
O=C(NCCO)c1cc(C2CCCN2c2ccnc(Cl)c2)c2nc(N3CCOCC3)cnc2c1 (stereo not shown) [Compound 47],21900,20900,> 513,17000,> 513,32,1950,–,–,–
CNCCOCCN(C)C(=O)c1cc(C2CCCN2c2ccnc(Cl)c2)c2nc(N3CCOCC3)cnc2c1 (stereo not shown) [Compound 49],> 30200,> 30200,> 513,> 30200,> 513,28,2460,–,–,–
